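Test compounds were applied to cells in 96-well plates for 48 hours at 5 doses. Here, GI50 denotes the concentration required for 50% inhibition of growth. TGI: concentration producing complete growth inhibition.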
What was measured:
Assay in all cases: growth of human tumour cells (NCI), 48 h
CAKI-1 renal = tested on: CAKI-1 renal
MOLT-4 leukemia = tested on: MOLT-4 leukemia
ACHN renal = tested on: ACHN renal
SN12C renal = tested on: SN12C renal
A498 renal = tested on: A498 renal
RXF 393 renal = tested on: RXF 393 renal
PC-3 prostate = tested on: PC-3 prostate
OVCAR-3 ovarian = tested on: OVCAR-3 ovarian
MALME-3M melanoma = tested on: MALME-3M melanoma
HOP-62 NSCLC = tested on: HOP-62 NSCLC

SMILES	TGI (CAKI-1 renal) [µM]	TGI (MOLT-4 leukemia) [µM]	TGI (ACHN renal) [µM]	TGI (SN12C renal) [µM]	TGI (A498 renal) [µM]	TGI (RXF 393 renal) [µM]	TGI (PC-3 prostate) [µM]	TGI (OVCAR-3 ovarian) [µM]	TGI (MALME-3M melanoma) [µM]	TGI (HOP-62 NSCLC) [µM]	GI50 (CAKI-1 renal) [nM]	GI50 (MOLT-4 leukemia) [nM]	GI50 (ACHN renal) [nM]	GI50 (SN12C renal) [nM]	GI50 (A498 renal) [nM]	GI50 (RXF 393 renal) [nM]	GI50 (PC-3 prostate) [nM]	GI50 (OVCAR-3 ovarian) [nM]	GI50 (MALME-3M melanoma) [nM]	GI50 (HOP-62 NSCLC) [nM]
O=C(O)C1C(=O)Oc2c(cccc2[N+](=O)[O-])C1O (stereo not given)	> 100	> 100	> 100	> 100	> 100	> 100	> 100	> 100	> 100	> 100	–	–	–	–	–	–	–	–	–	–
Cc1cccc(Cl)c1NC(=O)c1cnc(Nc2cc(N3CCOCC3)cc(N3CCOCC3)c2)s1	0.0246	> 10	0.171	> 10	0.473	0.153	> 10	> 10	> 10	> 10	4.67	> 4960	8.87	53.5	24.8	12.3	152	64.4	> 4820	22
O=C(/C=C/c1cccc([N+](=O)[O-])c1)c1ccc(O)c(CN2CCN(c3cc4c(cc3F)c(=O)c(C(=O)O)cn4C3CC3)CC2)c1	3.24	8.41	2.7	3.45	2.84	2.99	5.37	3.41	4.25	16.8	1630	2250	1400	1750	1350	1510	1850	1770	1930	3470
Nc1nc2ccc3[nH]ncc3c2c2c1CCCC2	8.24	10.8	10.5	8.93	3.49	1.77	10.1	9.87	5.13	6.77	609	2810	1560	1910	1640	399	2330	2780	2360	1990
CC(C)[NH-].CC(C)[NH-].O.O.[Cl][Pt+2][Cl]	124	132	107	133	358	137	298	59.1	57.8	194	31300	10200	14100	35900	150000	26600	90800	21100	19400	55800
COc1c2c(c(CC=C(C)C)c3oc(=O)c(-c4ccc(O)cc4)c(O)c13)OC(C)(C)C=C2	> 100	91	92.7	> 100	> 100	12.4	> 100	67.2	70.2	86.2	–	–	–	–	–	–	–	–	–	–
COc1cc(-c2csc(NC(=O)Nc3cc(C(F)(F)F)cc(C(F)(F)F)c3)n2)cc(OC)c1OC	12.1	8.99	10.6	11.8	5.08	6.17	7.55	10.6	7.32	6.36	2880	2170	2780	3000	1110	2130	1000	2390	2150	2110

From PubChem BioAssay (NCI)
